For this assay, the system named is GBM39. As to the kind of experiment: Radiation dose and time-point dependency of Bcl-XL inhibitor sensitivity. The class given is cell-based, human. The procedure:
F our days after radiation, cells were plated in black wall 96-well plates. Overnight and drugs added the next day. Seven days after drug treatment, cell viability was measured by CellTiter-Glo. To determine the impact of varying duration of drug exposure, 15 Gy radiated cells were plated 7 days after radiation, where the minimum drug exposure time was 1 hour and the maximum 96 hours. Cells were plated in black-wall 96-well plates, and drugs added the next day as described above. At the designated time-point, drug-containing media was removed and replaced with drug-free media for the remainder of the experiment (one wash with media, during a replacement). The cell viability assay was performed at the end of 96 hours. The previous experiments maintained radiated cells for 2-4 weeks after radiation prior to senolytic drug testing. While the senescence process often takes weeks, the apoptotic pathways regulated by Bcl-2 family members are dynamically regulated within days following DNA damage. As such, GBM39 was used to ask if a minimal period of time after radiation must elapse following radiation prior to onset of Bcl-XL sensitivity. […] Analysis was performed at the end of the 4 days drug exposure. […] Whether a minimal radiation dose was required to induce susceptibility cell death with Bcl-XL inhibition was investigated. […] For most cell lines, radiation doses of 10-20 Gy yielded similar results (FIG. 6 and Table 3). The duration of continuous Bcl-XL inhibitor exposure required to observe senolytic effect was investigated. To accomplish this, GBM39 was exposed to drug for varying durations from 0-96 hours, with drug then washed off and cells maintained in normal growth media thereafter until time of analysis.

Turning to `Cc1c(-c2ccc(N3CCc4cccc(C(=O)Nc5nc6ccccc6s5)c4C3)nc2C(=O)O)cnn1CC12CC3CC(CC(C3)C1)C2` [A1331852], the “Cell ablation by start of treatment after radiation” value (GBM39, 4 days drug, start 5 or 9 days vs 1 day after radiation) was “more complete cell ablation was observed with a leftward shift of the dose response curve”. Moreover, the “Radiation dose that promoted sensitivity” value (GBM39, increasing efficacy up to 15 Gy) is ≥ 4 Gy.
